Laboratory results published in patent publication US8835472B2, “Compounds, pharmaceutical compositions and uses thereof” (Boehringer Ingelheim International GmbH, priority 2010, dated 2014).

biological target: human ACC2 (Homo sapiens (Human), UniProt O00763); experiment: ACC2 assay, spectrophotometric 384 well assay (NADH-linked, coupled lactate dehydrogenase/pyruvate kinase reaction); format: biochemical; conditions: hACC2 construct lacking the 128 N-terminal amino acids; 25° C., 340 nm over 15 minutes
Sequence (O00763 129-2458): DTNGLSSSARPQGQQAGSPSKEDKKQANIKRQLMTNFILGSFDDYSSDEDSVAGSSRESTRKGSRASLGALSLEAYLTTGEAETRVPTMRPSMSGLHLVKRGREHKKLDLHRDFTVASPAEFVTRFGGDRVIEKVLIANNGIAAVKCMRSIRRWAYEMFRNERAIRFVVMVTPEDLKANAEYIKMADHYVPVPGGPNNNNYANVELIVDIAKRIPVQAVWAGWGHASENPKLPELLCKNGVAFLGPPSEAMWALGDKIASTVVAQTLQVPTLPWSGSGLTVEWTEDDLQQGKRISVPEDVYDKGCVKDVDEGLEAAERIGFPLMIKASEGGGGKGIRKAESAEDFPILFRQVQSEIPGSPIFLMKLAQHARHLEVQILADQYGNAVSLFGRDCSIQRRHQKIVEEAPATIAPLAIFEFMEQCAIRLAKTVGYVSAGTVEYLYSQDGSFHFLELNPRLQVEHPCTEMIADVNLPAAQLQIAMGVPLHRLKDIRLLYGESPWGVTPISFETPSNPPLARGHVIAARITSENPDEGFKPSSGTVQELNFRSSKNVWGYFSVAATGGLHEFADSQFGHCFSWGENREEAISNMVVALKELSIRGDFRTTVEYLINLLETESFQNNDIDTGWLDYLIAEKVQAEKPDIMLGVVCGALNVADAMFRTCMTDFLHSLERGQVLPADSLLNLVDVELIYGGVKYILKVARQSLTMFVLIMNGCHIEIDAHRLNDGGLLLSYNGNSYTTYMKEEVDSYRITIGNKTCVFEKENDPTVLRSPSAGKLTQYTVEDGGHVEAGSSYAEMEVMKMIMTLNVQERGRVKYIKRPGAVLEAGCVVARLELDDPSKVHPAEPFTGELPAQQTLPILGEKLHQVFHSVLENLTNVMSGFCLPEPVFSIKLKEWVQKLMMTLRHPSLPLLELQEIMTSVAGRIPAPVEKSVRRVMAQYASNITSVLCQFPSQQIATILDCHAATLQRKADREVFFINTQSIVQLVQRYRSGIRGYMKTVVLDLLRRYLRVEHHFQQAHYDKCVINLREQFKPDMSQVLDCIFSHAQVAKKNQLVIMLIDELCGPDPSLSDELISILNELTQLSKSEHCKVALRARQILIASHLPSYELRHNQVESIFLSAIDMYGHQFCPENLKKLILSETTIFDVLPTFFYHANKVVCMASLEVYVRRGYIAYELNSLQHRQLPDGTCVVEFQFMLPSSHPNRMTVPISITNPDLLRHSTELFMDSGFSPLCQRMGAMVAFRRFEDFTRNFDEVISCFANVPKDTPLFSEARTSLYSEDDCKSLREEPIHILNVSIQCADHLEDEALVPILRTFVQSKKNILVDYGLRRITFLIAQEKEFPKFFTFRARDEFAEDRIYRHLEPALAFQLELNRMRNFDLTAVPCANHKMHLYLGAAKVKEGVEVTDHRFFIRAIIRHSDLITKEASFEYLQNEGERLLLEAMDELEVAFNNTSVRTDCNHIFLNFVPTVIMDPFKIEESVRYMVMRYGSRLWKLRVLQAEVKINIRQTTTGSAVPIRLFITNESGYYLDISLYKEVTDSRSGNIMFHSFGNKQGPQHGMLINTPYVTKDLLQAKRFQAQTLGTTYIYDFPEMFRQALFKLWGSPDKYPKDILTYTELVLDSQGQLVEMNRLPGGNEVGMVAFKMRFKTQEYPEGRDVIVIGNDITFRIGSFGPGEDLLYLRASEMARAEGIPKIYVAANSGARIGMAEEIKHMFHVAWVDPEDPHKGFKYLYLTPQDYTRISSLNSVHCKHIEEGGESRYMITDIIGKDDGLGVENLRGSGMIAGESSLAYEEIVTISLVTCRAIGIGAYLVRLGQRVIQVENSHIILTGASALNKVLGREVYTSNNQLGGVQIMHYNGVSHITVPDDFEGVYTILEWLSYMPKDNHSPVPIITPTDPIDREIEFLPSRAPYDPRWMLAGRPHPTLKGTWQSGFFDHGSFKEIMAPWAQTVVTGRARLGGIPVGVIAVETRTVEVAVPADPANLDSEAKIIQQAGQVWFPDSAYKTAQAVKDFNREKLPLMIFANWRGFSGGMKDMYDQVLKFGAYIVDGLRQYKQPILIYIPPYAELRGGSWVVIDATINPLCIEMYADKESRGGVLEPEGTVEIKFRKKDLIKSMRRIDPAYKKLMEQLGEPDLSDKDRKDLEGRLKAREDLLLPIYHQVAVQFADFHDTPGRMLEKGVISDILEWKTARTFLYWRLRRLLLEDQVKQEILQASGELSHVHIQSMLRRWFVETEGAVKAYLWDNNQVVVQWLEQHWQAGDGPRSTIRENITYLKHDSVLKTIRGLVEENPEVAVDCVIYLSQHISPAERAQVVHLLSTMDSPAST
Method in brief: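 Kinetic NADH-linked assay (pyruvate kinase/lactate dehydrogenase coupling) with baculovirus-expressed hACC2 missing its first 128 amino acids. Started with 500 μM ATP and 200 μM each NADH and acetyl-CoA; slope followed 15 min at 25 °C, pH 7.5. No-acetyl-CoA wells define 0%; IC50 by nonlinear regression.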

IC50 [µM] | Structure (SMILES)
0.81 | CC(=O)NC(C)Cc1ccc(C#Cc2ccc(C)cc2)cc1 (centres unmarked) [Example 1.2]
0.28 | CCOCCOc1ccc(C#Cc2ccc(CC(C)NC(C)=O)cc2)cc1 (centres unmarked) [Example 9.19]
4.5 | CC(=O)NC(C)Cc1ccc(C#Cc2ccnc(N3CCC(C#N)C3)n2)cc1 (centres unmarked) [Example 11.29]
0.29 | CCC(=O)NCC(C)c1ccc(C#Cc2cnc(OC3CCC3)nc2)cc1 (centres unmarked) [Example 4.78]
0.15 | CC(=O)NC(C)Cc1ccc(C#Cc2cnc(NC(C)C3CC3)nc2)cc1 (centres unmarked) [Example 13.66]
0.07 | CCCOc1ccc(C#Cc2ccc(C[C@H](C)NC(C)=O)cc2)cc1 [Example 23.6]
24.6 | CC(=O)NC(C)(C)c1ccc(C#Cc2ccc(OC3CCC3)cc2)cc1 [Example 2.42]
5.1 | CC(=O)NC(C)Cc1ccc(C#Cc2ccc3c(ccn3CCO)c2)cc1 (centres unmarked) [Example 1.25]
0.52 | COC(=O)NCC(C)c1ccc(C#Cc2cnc(OC3CCC3)nc2)cc1 (centres unmarked) [Example 33.4]
22.1 | CC(=O)NC(C)Cc1ccc(C#Cc2ccc(OCCN3CCCCC3)cc2)cc1 (centres unmarked) [Example 9.5]
0.47 | CCOc1ccc(C#Cc2ccc(CC(C)NC(=O)C=C(C)C)cc2)cc1 (centres unmarked) [Example 4.17]
2.4 | CCCN(C)C(=O)c1cccc(C#Cc2ccc(CC(C)NC(C)=O)cc2)c1 (centres unmarked) [Example 8.25]
0.18 | CCCOc1ccc(C#Cc2ccc(CC(C)NC(C)=O)cc2)nc1 (centres unmarked) [Example 23.8]
0.17 | CC(=O)NC(C)Cc1ccc(C#Cc2cnc(NCCC(F)(F)F)nc2)cc1 (centres unmarked) [Example 13.75]
3.2 | COCCN(C)c1ncc(C#Cc2ccc(CC(C)NC(C)=O)cc2)cn1 (centres unmarked) [Example 13.1, N-(1-(4-((2-((2-Methoxyethyl)(methyl)amino)pyrimidin-5-yl)ethynyl)phenyl)propan-2-yl)acetamide]
0.56 | COc1c(F)cc(C#Cc2ccc(CC(C)NC(C)=O)cc2)cc1F (centres unmarked) [Example 3.4]
1.2 | COc1ccc(C#Cc2ccc(CC(C)NC(C)=O)cc2)c(C#N)c1 (centres unmarked) [Example 3.12]
1.6 | CC(=O)NC(C)Cc1ccc(C#Cc2cccc(OCc3cn(C)cn3)c2)cc1 (centres unmarked) [Example 9.14]
0.22 | CC(=O)NC(C)CCc1ccc(C#Cc2ccc(OCC(C)C)cc2)cc1 (centres unmarked) [Example 14.13]
0.49 | CCOc1ccc(C#Cc2ccc(CC(C)NC(=O)C3CCOC3)cc2)cc1 (centres unmarked) [Example 4.33]
2.8 | CC(=O)NC(C)Cc1ccc(C#Cc2cccc(C(=O)NCC(C)C)c2)cc1 (centres unmarked) [Example 8.30]
0.09 | CC(=O)NC(C)Cc1ccc(C#Cc2cnc(OC3CCC3)nc2)cc1 (centres unmarked) [Example 12.12]

IC50 [µM] | Structure (SMILES)
0.93 | CC(=O)NC(C)Cc1ccc(C#Cc2ccnc(N3CCCC3)n2)cc1 (centres unmarked) [Example 11.43]
0.34 | CC(=O)NC(C)Cc1ccc(C#Cc2ccc(OCC3(C)COC3)cc2)cc1 (centres unmarked) [Example 9.33]
0.2 | CC(C)Nc1ncc(C#Cc2ccc(CC(C)NC(=O)N(C)C)cc2)cn1 (centres unmarked) [Example 13.24]
4.6 | CC(=O)NC(C)Cc1ccc(C#Cc2ccc(C(=O)N(C)c3ccccc3)cc2)cc1 (centres unmarked) [Example 8.19]
0.69 | CC(=O)NC(C)Cc1ccc(C#Cc2ccnc(N3CCCC(C(F)(F)F)C3)n2)cc1 (centres unmarked) [Example 11.36]
19.2 | CCOc1ccc(C#Cc2ccc(CC(C)NC(=O)c3nc[nH]n3)cc2)cc1 (centres unmarked) [Example 4.73]
0.98 | CC(=O)N[C@@H](C)c1ccc(C#Cc2cnc(Oc3ccccc3)nc2)cc1 [Example 12.68]
1 | CC(=O)N[C@@H](C)c1ccc(C#Cc2cnc(NC3CCC3)nc2)cc1 [Example 13.89]
1.1 | CC(=O)NC(C)Cc1ccc(C#Cc2ccc3ncccc3c2)cc1 (centres unmarked) [Example 2.74]
4.7 | COC(=O)NC(C)Cc1ccc(C#Cc2cnc(N3CCCC3)nc2)cc1 (centres unmarked) [Example 13.34]
0.61 | COC(=O)NC(C)Cc1ccc(C#Cc2cnc(N3CCC4(CC4)C3)nc2)cc1 (centres unmarked) [Example 13.29]
4.9 | CC(=O)NC(C)Cc1ccc(C#Cc2cnn(C)c2)cc1 (centres unmarked) [Example 2.107]
3.6 | CC(=O)NC(C)Cc1ccc(C#Cc2ccc(C(C)=O)cc2)cc1 (centres unmarked) [Example 2.19]
0.35 | CC(=O)NC(C)Cc1ccc(C#Cc2ccnc(N(C)CCC(C)(C)C)n2)cc1 (centres unmarked) [Example 11.32]
0.28 | CCOc1ccc(C#Cc2ccc(CCC(C)NC(C)=O)cc2)cn1 (centres unmarked) [Example 14.53]
0.4 | CC(=O)NC(C)Cc1ccc(C#Cc2ccc(OCCc3ccncc3)cc2)cc1 (centres unmarked) [Example 9.23]
0.17 | CC(=O)N[C@@H](C)Cc1ccc(C#Cc2ccc(Oc3ccccc3)nc2)cc1 [Example 24.3]
2 | COc1cc(C#Cc2ccc(CC(C)NC(=O)C3CC3)cc2)ccn1 (centres unmarked) [Example 2.69]
0.13 | CC(=O)N[C@@H](C)Cc1ccc(C#Cc2ccc(OC(C)C)cc2)cc1 [Example 23.2]
21.5 | CC(=O)NC(C)(C)c1ccc(C#Cc2cnc(OC3CCC3)nc2)cc1 [Example 23.15]
0.25 | CC(=O)NC(C)Cc1ccc(C#Cc2ccc(OCc3ccoc3)cc2)cc1 (centres unmarked) [Example 9.26]
0.36 | CC(=O)NC(C)Cc1ccc(C#Cc2cnc(NCC(F)(F)F)nc2)cc1 (centres unmarked) [Example 13.59]

IC50 [µM] | Structure (SMILES)
2.1 | CC(=O)NC(C)Cc1ccc(C#Cc2cccc(C(=O)N3CCCCC3)c2)cc1 (centres unmarked) [Example 8.32]
0.32 | CCOc1ccc(C#Cc2ccc([C@H](C)NC(=O)C3CC3)cc2)cc1 [Example 14.49]
0.44 | CC(Cc1ccc(C#Cc2ccc(OC(C)C)cc2)cc1)NC(=O)C1CC1 (centres unmarked) [Example 14.41]
0.16 | CCCOc1ccc(C#Cc2ccc(CC(C)NC(C)=O)cc2)c(OC)c1 (centres unmarked) [Example 2.32]
1.4 | CC(=O)NCCc1ccc(C#Cc2ccc(Oc3ccccc3)nc2)cc1 [Example 14.38]
0.22 | CC(=O)NC(C)Cc1ccc(C#Cc2cnc(N3CCCC3)nc2)cc1 (centres unmarked) [Example 13.77]
2.3 | CC(=O)NC(C)Cc1ccc(C#Cc2ccc(C(=O)NCc3ccccc3)cc2)cc1 (centres unmarked) [Example 1.12]
0.1 | CC(=O)NC(C)Cc1ccc(C#Cc2ccc(OC3CCCC3)cc2)cc1 (centres unmarked) [Example 9.2]
0.12 | CC(=O)NC(C)Cc1ccc(C#Cc2ccc(Oc3ccccc3)cc2)cc1 (centres unmarked) [Example 2.16]
25 | CCCOc1ccc(C#Cc2ccc(C(C)(C)NC(C)=O)cc2)cc1 [Example 2.41]
7.5 | CC(=O)NC(C)Cc1ccc(C#Cc2ccc(OC(F)(F)F)cc2C#N)cc1 (centres unmarked) [Example 2.10]
1.8 | CCOc1ccc(C#Cc2ccc([C@H](C)NC(C)=O)cc2)cn1 [Example 14.25]
12.9 | CCn1ccc(C#Cc2ccc(CC(C)NC(C)=O)cc2)cc1=O (centres unmarked) [Example 2.87]
1.1 | CCOc1ccc(C#Cc2ccc(CC(C)NC(=O)CN(C)C)cc2)cc1 (centres unmarked) [Example 4.10]
0.99 | CCOc1ccc(C#Cc2ccc(CC(C)NC(=O)c3oc(C)nc3C)cc2)cc1 (centres unmarked) [Example 4.57]
1.2 | CC(=O)NC(C)Cc1ccc(C#Cc2cnc(NCc3ccncc3)nc2)cc1 (centres unmarked) [Example 13.82]
0.07 | CC(=O)NCC(C)c1ccc(C#Cc2cnc(OC3CCC3)nc2)cc1 (centres unmarked) [Example 32.3]
0.33 | CCCOc1ccc(C#Cc2ccc(CC(C)(C)NC(=O)C3CC3)cc2)cc1 [Example 35.2]
1.2 | CCOc1ccc(C#Cc2ccc(CC(COC)NC(C)=O)cc2)cc1 (centres unmarked) [Example 27.2]
16.4 | COCCOc1ccc(C#Cc2ccc(CC(C)NC(C)=O)cc2)nn1 (centres unmarked) [Example 2.89]
7.2 | CCOc1ccc(C#Cc2ccc(CCNC(C)=O)nc2)cc1 [26.1]
5.3 | COc1ncccc1C#Cc1ccc(CC(C)NC(C)=O)cc1 (centres unmarked) [Example 2.13]

IC50 [µM] | Structure (SMILES)
1.7 | COC(C)CN(C)c1nccc(C#Cc2ccc(CC(C)NC(C)=O)cc2)n1 (centres unmarked) [Example 11.17]
0.19 | CCOc1ccc(C#Cc2ccc(CC(C)NC(=O)N(C)C)cc2)cc1 (centres unmarked) [Example 7.2]
5.6 | CC(=O)NC(C)Cc1ccc(C#Cc2ccc(C(=O)N(C)Cc3nc(C)oc3C)cc2)cc1 (centres unmarked) [Example 8.2]
5 | CC(=O)NC(C)Cc1ccc(C#Cc2cccc(C(=O)NCC3CC3)c2)cc1 (centres unmarked) [Example 8.28]
0.16 | CC(=O)NC(C)CCc1ccc(C#Cc2ccc(OC3CCCC3)cc2)cc1 (centres unmarked) [Example 14.14]
2.1 | COc1ccc(C#Cc2ccc(C(C)NC(C)=O)cc2)c(C)c1 (centres unmarked) [Example 1.30]
2.4 | CC(=O)NC(C)Cc1ccc(C#Cc2ccc(C(=O)N(C)C3CCCC3)cc2)cc1 (centres unmarked) [Example 8.13]
0.43 | CC(=O)NC(C)Cc1ccc(C#Cc2cnc(OCC3(C)CC3)nc2)cc1 (centres unmarked) [Example 12.13]
0.17 | CCCOc1ccc(C#Cc2ccc(CC(C)NC(C)=O)cc2)c(C#N)c1 (centres unmarked) [Example 2.92]
1.9 | CC(=O)NC(C)Cc1ccc(C#Cc2ccc(OC3CCN(C)C3)cc2)cc1 (centres unmarked) [Example 9.7]
0.6 | CC(=O)NC(C)Cc1ccc(C#Cc2cnc(NCC3CCCC3)nc2)cc1 (centres unmarked) [Example 13.76]
1.1 | COC(=O)NC(C)Cc1ccc(C#Cc2cnc(OC(C)C)nc2)cc1 (centres unmarked) [Example 12.28]
0.61 | CC(=O)NC(C)Cc1ccc(C#Cc2ccc(OC(C)C)cn2)cc1 (centres unmarked) [Example 1.20]
0.4 | CC(=O)NC(C)Cc1ccc(C#Cc2ccnc(N3CCCC(c4ccccc4)C3)n2)cc1 (centres unmarked) [Example 11.27]
0.23 | CCNC(=O)NC(C)Cc1ccc(C#Cc2ccc(OCC)cc2)cc1 (centres unmarked) [Example 6.3]
0.08 | CCOc1ccc(C#Cc2ccc(C[C@H](C)NC(C)=O)cc2)cn1 [Example 23.5]
5.1 | CCOc1ccc(C#Cc2ccc(CC(C)NC(=O)c3c(C)noc3N)cc2)cc1 (centres unmarked) [Example 4.52]
0.07 | CCOc1ccc(C#Cc2ccc(CC(C)NC(=O)c3cncs3)cc2)cc1 (centres unmarked) [Example 4.67]
11.3 | CC(=O)NC(C)Cc1ccc(C#Cc2ccc(C(=O)N3CCN(C)CC3)cc2)cc1 (centres unmarked) [Example 8.46]
0.14 | CC(=O)N[C@@H](C)c1ccc(C#Cc2ccc(OCC(C)C)cc2)cc1 [Example 14.26]
